Laboratory results: EP2812315B1, “PYRROLIC DERIVATIVES, PROCESSES FOR PREPARING THE SAME AND THEIR USES AS A DRUG” (Universite Joseph Fourier, priority 2012, dated 2013)
≈ marks a conversion by molar mass, not a printed value. Where two headings read alike, the source gives them in different places.

Assays:
Format in all cases: cell-based
[1] = test system: Streptococcus agalactiae (group B) ATCC 12400; assay: MIC determination, microdilution method (CLSI M07-A8); conditions: ATCC12400, 18 hours incubation
Procedure: (§1) The microdilution method recommended by the Clinical and Laboratory Standard Institute [M07-A8, Vol.29, N°2] was used. The activity of pyrrolic compounds was tested against 29 bacterial strains belonging to 17 different species and 12 different genera (Staphylococcus, Streptococcus, Enterococcus, […], Bacillus, Haetttophilus, Escherichia, Klebsiella, Enterobacter, Serratia, Pseudomonas, and Acinetobacter). Bacterial inocula were prepared in Mueller Hinton broth (MH2, bioMérieux, Marcy L'Etoile, France), supplemented with 10% sheep blood for fastidious species (i.e., Streptococcus pneumoniae and Haemophilus influenzae). They were dispensed in 96 well microtiter plates (5 x 10^5 CFU/mL of final inoculum). Pyrrolic compounds were added to the wells as to obtain two-fold serial concentrations (0.25-64 mg/L). Plates were incubated at 37°C, in 5% CO2 enriched atmosphere for fastidious species only. MICs were read after 18 hours incubation of cultures, and corresponded to the minimum pyrrolic compound concentration that allowed complete visual growth inhibition of bacteria. Drug-free cultures served as growth controls. Cultures receiving gentamicine, ciprofloxacine or cefotaxime served as positive controls.

[2] = test system: Acinetobacter baumanii ATCC 19606; assay: as above; conditions: Acinetobacter baumannii
Procedure: as §1

[3] = test system: Enterococcus faecium CIP 54.32; assay: as above; conditions: CIP54, 18 hours incubation
Procedure: as §1

[4] = test system: Escherichia coli ATCC 25922; assay: as above
Procedure: as §1

[5] = test system: Staphylococcus aureus ATCC 9144; assay: as above; conditions: ATCC9144, 5 x 10^5 CFU/mL, 18 hours incubation
Procedure: as §1

[6] = test system: Streptococcus pneumoniae ATCC 49619; assay: as above; conditions: ATCC49619, 10% sheep blood, 5% CO2, 18 hours incubation
Procedure: as §1

[7] = test system: Staphylococcus aureus ATCC 29213; assay: as above
Procedure: as §1

[8] = test system: Pseudomonas aeruginosa CIP 5933; assay: as above
Procedure: as §1

[9] = test system: Staphylococcus epidermidis CIP 103627; assay: as above; conditions: CIP103627, 5 x 10^5 CFU/mL, 18 hours incubation
Procedure: as §1

[10] = test system: Streptococcus mitis CIP 103335; assay: as above; conditions: CIP103335, 18 hours incubation
Procedure: as §1

[11] = test system: Staphylococcus aureus ATCC 106414 (VISA); assay: as above; conditions: 5 x 10^5 CFU/mL, 18 hours incubation
Procedure: as §1

[12] = test system: Serratia marcescens CIP 103551; assay: as above
Procedure: as §1

[13] = test system: Staphylococcus aureus ATCC 6538; assay: as above; conditions: ATCC6538, 5 x 10^5 CFU/mL, 18 hours incubation
Procedure: as §1

[14] = test system: Staphylococcus aureus CIP 65.6; assay: as above; conditions: CIP65, 5 x 10^5 CFU/mL, 18 hours incubation
Procedure: as §1

[15] = test system: Enterobacter cloacae ATCC13047; assay: as above
Procedure: as §1

[16] = test system: Staphylococcus aureus CIP 103428; assay: as above; conditions: CIP103428, 5 x 10^5 CFU/mL, 18 hours incubation
Procedure: as §1

[17] = test system: Klebsiella pneumoniae ATCC 35657; assay: as above
Procedure: as §1

[18] = test system: Staphylococcus aureus ATCC 33592 (MRSA); assay: as above; conditions: 5 x 10^5 CFU/mL, 18 hours incubation
Procedure: as §1

[19] = test system: Streptococcus pyogenes (group A) CIP 104226; assay: as above; conditions: CIP104226, 18 hours incubation
Procedure: as §1

[20] = test system: Staphylococcus epidermidis CIP 81.55; assay: as above; conditions: CIP81, 5 x 10^5 CFU/mL, 18 hours incubation
Procedure: as §1

[21] = test system: Streptococcus pneumoniae ATCC 6303; assay: as above; conditions: ATCC6303, 10% sheep blood, 5% CO2, 18 hours incubation
Procedure: as §1

[22] = test system: Haemophilus influenzae ATCC 49766; assay: as above; conditions: ATCC49766, 10% sheep blood, 5% CO2, 18 hours incubation
Procedure: as §1

[23] = test system: Staphylococcus epidermidis ATCC 12228; assay: as above
Procedure: as §1

[24] = test system: Staphylococcus aureus CIP 65.25 (MRSA); assay: as above; conditions: 5 x 10^5 CFU/mL, 18 hours incubation
Procedure: as §1

[25] = test system: Listeria innocua CIP 80.11; assay: as above; conditions: CIP80, 18 hours incubation
Procedure: as §1

[26] = test system: Enterococcus faecalis ATCC 29212; assay: as above; conditions: ATCC29212, 18 hours incubation
Procedure: as §1

[27] = test system: Bacillus subtilis CIP 5262; assay: as above; conditions: CIP5262, 18 hours incubation
Procedure: as §1

[28] = test system: Staphylococcus aureus SA-1199B; assay: as above; conditions: SA1199B, 18 h
Procedure: as §1

[29] = test system: Staphylococcus aureus ATCC 25923; assay: as above
Procedure: as §1

[30] = test system: HCT116 (human colon tumor); assay: In vitro cytotoxicity; conditions: HCT-116, 10^-5 M in DMSO, triplicate, read-out: % of cellular growth inhibition
Procedure: (§2) In vitro cytotoxicity was assayed on three cell lines - KB (human mouth carcinoma), MCR5 (human lung fibroblast) and HCT116 (human colon tumor). Results are presented in table III as % of cellular growth inhibition in presence of 10^-5 M and 10^-6 M of the tested bis-pyrrolic derivatives in DMSO (triplicate).

[31] = test system: KB (human mouth carcinoma); assay: In vitro cytotoxicity; conditions: 10^-5 M in DMSO, triplicate, read-out: % of cellular growth inhibition
Procedure: as §2

MRC5 = assay: In vitro cytotoxicity; conditions: MRC5 (human lung fibroblast); 10^-5 M in DMSO; triplicate; read-out: % of cellular growth inhibition
Procedure: as §2

[32] = ATCC19606, Acinetobacter baumanii ATCC 19606, 18 hours incubation, read-out: MIC
[33] = ATCC25922, Escherichia coli ATCC 25922, 18 hours incubation, read-out: MIC
[34] = ATCC29213, Staphylococcus aureus ATCC 29213, 5 x 10^5 CFU/mL, 18 hours incubation, read-out: MIC
[35] = CIP5933, Pseudomonas aeruginosa CIP 5933, 18 hours incubation, read-out: MIC
[36] = CIP103551, Serratia marcescens CIP 103551, 18 hours incubation, read-out: MIC
[37] = Enterobacter cloacae ATCC13047, 18 hours incubation, read-out: MIC
[38] = ATCC35657, Klebsiella pneumoniae ATCC 35657, 18 hours incubation, read-out: MIC
[39] = ATCC12228, Staphylococcus epidermidis ATCC 12228, 5 x 10^5 CFU/mL, 18 hours incubation, read-out: MIC
[40] = ATCC25923, Staphylococcus aureus ATCC 25923, 5 x 10^5 CFU/mL, 18 hours incubation, read-out: MIC

MIC [2, 32]	MIC [4, 33]	MIC [7, 34]	MIC [8, 35]	MIC [12, 36]	MIC [15, 37]	MIC [17, 38]	MIC [23, 39]	MIC [29, 40]	SMILES	MIC [5]	MIC [9]	MIC [11]	MIC [13]	MIC [14]	MIC [16]	MIC [18]	MIC [20]	inhibition at 10 µM [30]	inhibition at 10 µM [31]	inhibition at 10 µM (MRC5)	other results
> 32 µg/mL	> 32 µg/mL	4 µg/mL (≈ 8.19 µM)	> 32 µg/mL	> 32 µg/mL	> 32 µg/mL	> 32 µg/mL	> 128 µg/mL	8 µg/mL (≈ 16.4 µM)	CC(=O)c1c(C)[nH]c(C(c2ccccc2I)c2[nH]c(C)c(C(C)=O)c2C)c1C [3k]	–	–	–	–	–	–	–	–	0%	20 ± 8%	3 ± 5%	–
> 32 µg/mL	> 32 µg/mL	8 µg/mL (≈ 21.7 µM)	> 32 µg/mL	> 32 µg/mL	> 32 µg/mL	> 32 µg/mL	> 128 µg/mL	4 µg/mL (≈ 10.9 µM)	CC(=O)c1c(C)[nH]c(C(c2cccs2)c2[nH]c(C)c(C(C)=O)c2C)c1C [3l]	–	–	–	–	–	–	–	–	11 ± 7%	9 ± 5%	6 ± 3%	–

The next lines start with the molecule.

SMILES	MIC [2, 32]	MIC [4, 33]	MIC [7, 34]	MIC [8, 35]	MIC [12, 36]	MIC [15, 37]	MIC [17, 38]	MIC [23, 39]	MIC [29, 40]	MIC [5]	MIC [9]	MIC [11]	MIC [13]	MIC [14]	MIC [16]	MIC [18]	MIC [20]	inhibition at 10 µM [30]	inhibition at 10 µM [31]	inhibition at 10 µM (MRC5)	other results
CCC(c1[nH]c(C)c(C(C)=O)c1C)c1[nH]c(C)c(C(C)=O)c1C [3a]	> 128 µg/mL	> 128 µg/mL	32 µg/mL (≈ 102 µM)	> 128 µg/mL	> 128 µg/mL	> 128 µg/mL	> 128 µg/mL	> 128 µg/mL	32 µg/mL (≈ 102 µM)	> 128 µg/mL	> 128 µg/mL	32 µg/mL (≈ 102 µM)	16 µg/mL (≈ 50.9 µM)	32 µg/mL (≈ 102 µM)	32 µg/mL (≈ 102 µM)	16 µg/mL (≈ 50.9 µM)	> 128 µg/mL	41%	30%	–	MIC [1]: > 128 µg/mL; MIC [3]: > 128 µg/mL; MIC [6]: > 128 µg/mL; MIC [10]: > 128 µg/mL; MIC [19]: > 128 µg/mL; MIC [21]: > 128 µg/mL; MIC [22]: > 128 µg/mL; MIC [24]: 16 µg/mL (≈ 50.9 µM); MIC [25]: > 128 µg/mL; MIC [26]: > 128 µg/mL; MIC [27]: > 128 µg/mL; MIC [28]: 32 µg/mL (≈ 102 µM)
CC(=O)c1c(C)[nH]c(C(c2ccccc2)c2[nH]c(C)c(C(C)=O)c2C)c1C [3b]	> 128 µg/mL	> 128 µg/mL	4 µg/mL (≈ 11 µM)	> 128 µg/mL	> 128 µg/mL	> 128 µg/mL	> 128 µg/mL	> 128 µg/mL	4 µg/mL (≈ 11 µM)	8 µg/mL (≈ 22.1 µM)	> 128 µg/mL	4 µg/mL (≈ 11 µM)	4 µg/mL (≈ 11 µM)	4 µg/mL (≈ 11 µM)	4 µg/mL (≈ 11 µM)	8 µg/mL (≈ 22.1 µM)	> 128 µg/mL	43%	32%	–	MIC [1]: > 128 µg/mL; MIC [3]: > 128 µg/mL; MIC [6]: > 128 µg/mL; MIC [10]: > 128 µg/mL; MIC [19]: > 128 µg/mL; MIC [21]: > 128 µg/mL; MIC [22]: > 128 µg/mL; MIC [24]: 8 µg/mL (≈ 22.1 µM); MIC [25]: > 128 µg/mL; MIC [26]: > 128 µg/mL; MIC [27]: > 128 µg/mL; MIC [28]: 8 µg/mL (≈ 22.1 µM)
CC(=O)c1c(C)[nH]c(C(c2ccc([N+](=O)[O-])cc2)c2[nH]c(C)c(C(C)=O)c2C)c1C [3d]	> 128 µg/mL	> 128 µg/mL	8 µg/mL (≈ 19.6 µM)	> 128 µg/mL	> 128 µg/mL	> 128 µg/mL	> 128 µg/mL	> 128 µg/mL	> 32 µg/mL	> 32 µg/mL	> 128 µg/mL	8 µg/mL (≈ 19.6 µM)	> 32 µg/mL	16 µg/mL (≈ 39.3 µM)	> 32 µg/mL	> 32 µg/mL	> 128 µg/mL	0%	0%	0%	MIC [24]: 8 µg/mL (≈ 19.6 µM)
CC(=O)c1c(C)[nH]c(C(c2ccccc2O)c2[nH]c(C)c(C(C)=O)c2C)c1C [3m]	–	–	–	–	–	–	–	–	–	–	–	–	–	–	–	–	–	0%	6 ± 10%	1 ± 17%	MIC ([2]; ATCC19606, 18 h): > 32 µg/mL; MIC ([4]; Escherichia coli, ATCC25922, 18 h): > 32 µg/mL; MIC ([7]; Staphylococcus aureus, ATCC29213, 18 h): 4 µg/mL (≈ 10.6 µM); MIC ([8]; Pseudomonas aeruginosa, CIP5933, 18 h): > 32 µg/mL; MIC ([12]; Serratia marcescens, CIP103551, 18 h): > 32 µg/mL; MIC ([15]; Enterobacter cloacae, ATCC13047, 18 h): > 32 µg/mL; MIC ([17]; Klebsiella pneumoniae, ATCC35657, 18 h): > 32 µg/mL; MIC ([23]; Staphylococcus epidermidis, ATCC12228, 18 h): > 128 µg/mL; MIC ([29]; Staphylococcus aureus, ATCC25923, 18 h): 8 µg/mL (≈ 21.1 µM)
